Experimental data as given in BigSolDB 2.1.

## O=C1C=CC(=O)O1
In DMF, 278.15 K
  solubility (mole fraction): 0.0297
In DMF, 283.15 K
  solubility (mole fraction): 0.0372
In DMF, 288.15 K
  solubility (mole fraction): 0.0466
In DMF, 293.15 K
  solubility (mole fraction): 0.0584
In DMF, 298.15 K
  solubility (mole fraction): 0.0707
In DMF, 303.15 K
  solubility (mole fraction): 0.087
In DMF, 308.15 K
  solubility (mole fraction): 0.104
In DMF, 313.15 K
  solubility (mole fraction): 0.125
In DMF, 318.15 K
  solubility (mole fraction): 0.15
In DMF, 323.15 K
  solubility (mole fraction): 0.176
In acetic acid, 278.15 K
  solubility (mole fraction): 0.0156
In acetic acid, 283.15 K
  solubility (mole fraction): 0.0216
In acetic acid, 288.15 K
  solubility (mole fraction): 0.0281
In acetic acid, 293.15 K
  solubility (mole fraction): 0.0369
In acetic acid, 298.15 K
  solubility (mole fraction): 0.0472
In acetic acid, 303.15 K
  solubility (mole fraction): 0.0605
In acetic acid, 308.15 K
  solubility (mole fraction): 0.0767
In acetic acid, 313.15 K
  solubility (mole fraction): 0.0962
In acetic acid, 318.15 K
  solubility (mole fraction): 0.119
In acetic acid, 323.15 K
  solubility (mole fraction): 0.146
In acetone, 278.15 K
  solubility (mole fraction): 0.00999
In acetone, 283.15 K
  solubility (mole fraction): 0.0136
In acetone, 288.15 K
  solubility (mole fraction): 0.0191
In acetone, 293.15 K
  solubility (mole fraction): 0.0264
In acetone, 298.15 K
  solubility (mole fraction): 0.0336
In acetone, 303.15 K
  solubility (mole fraction): 0.0453
In acetone, 308.15 K
  solubility (mole fraction): 0.0599
In acetone, 313.15 K
  solubility (mole fraction): 0.0768
In acetone, 318.15 K
  solubility (mole fraction): 0.0977
In acetone, 323.15 K
  solubility (mole fraction): 0.124
In acetonitrile, 278.15 K
  solubility (mole fraction): 0.012
In acetonitrile, 283.15 K
  solubility (mole fraction): 0.0173
In acetonitrile, 288.15 K
  solubility (mole fraction): 0.0232
In acetonitrile, 293.15 K
  solubility (mole fraction): 0.0307
In acetonitrile, 298.15 K
  solubility (mole fraction): 0.0408
In acetonitrile, 303.15 K
  solubility (mole fraction): 0.0526
In acetonitrile, 308.15 K
  solubility (mole fraction): 0.0682
In acetonitrile, 313.15 K
  solubility (mole fraction): 0.0873
In acetonitrile, 318.15 K
  solubility (mole fraction): 0.111
In acetonitrile, 323.15 K
  solubility (mole fraction): 0.139
In ethyl acetate, 278.15 K
  solubility (mole fraction): 0.00906
In ethyl acetate, 283.15 K
  solubility (mole fraction): 0.0125
In ethyl acetate, 288.15 K
  solubility (mole fraction): 0.017
In ethyl acetate, 293.15 K
  solubility (mole fraction): 0.0219
In ethyl acetate, 298.15 K
  solubility (mole fraction): 0.0303
In ethyl acetate, 303.15 K
  solubility (mole fraction): 0.0398
In ethyl acetate, 308.15 K
  solubility (mole fraction): 0.0518
In ethyl acetate, 313.15 K
  solubility (mole fraction): 0.0665
In ethyl acetate, 318.15 K
  solubility (mole fraction): 0.0857
In ethyl acetate, 323.15 K
  solubility (mole fraction): 0.107
In isopropanol, 278.15 K
  solubility (mole fraction): 0.00617
In isopropanol, 283.15 K
  solubility (mole fraction): 0.00942
In isopropanol, 288.15 K
  solubility (mole fraction): 0.013
In isopropanol, 293.15 K
  solubility (mole fraction): 0.0178
In isopropanol, 298.15 K
  solubility (mole fraction): 0.0241
In isopropanol, 303.15 K
  solubility (mole fraction): 0.0321
In isopropanol, 308.15 K
  solubility (mole fraction): 0.043
In isopropanol, 313.15 K
  solubility (mole fraction): 0.0552
In isopropanol, 318.15 K
  solubility (mole fraction): 0.0712
In isopropanol, 323.15 K
  solubility (mole fraction): 0.0909
In methanol, 278.15 K
  solubility (mole fraction): 0.0211
In methanol, 283.15 K
  solubility (mole fraction): 0.0282
In methanol, 288.15 K
  solubility (mole fraction): 0.0359
In methanol, 293.15 K
  solubility (mole fraction): 0.0465
In methanol, 298.15 K
  solubility (mole fraction): 0.0582
In methanol, 303.15 K
  solubility (mole fraction): 0.0719
In methanol, 308.15 K
  solubility (mole fraction): 0.0886
In methanol, 313.15 K
  solubility (mole fraction): 0.109
In methanol, 318.15 K
  solubility (mole fraction): 0.132
In methanol, 323.15 K
  solubility (mole fraction): 0.159
In n-butanol, 278.15 K
  solubility (mole fraction): 0.00359
In n-butanol, 283.15 K
  solubility (mole fraction): 0.00539
In n-butanol, 288.15 K
  solubility (mole fraction): 0.00796
In n-butanol, 293.15 K
  solubility (mole fraction): 0.0116
In n-butanol, 298.15 K
  solubility (mole fraction): 0.0168
In n-butanol, 303.15 K
  solubility (mole fraction): 0.0236
In n-butanol, 308.15 K
  solubility (mole fraction): 0.033
In n-butanol, 313.15 K
  solubility (mole fraction): 0.0455
In n-butanol, 318.15 K
  solubility (mole fraction): 0.0618
In n-butanol, 323.15 K
  solubility (mole fraction): 0.0828
